Measurements from patent publication US20100119483A1, “PEPTIDE VIRAL ENTRY INHIBITORS” (Schering Corporation, priority 2004, published 2010).
Values joined by “and” are separate entries in the source; they are usually repeats but may differ in a detail not shown here. Identical values can stand only once.

Key:
[1] = test system: HCV pseudoparticles; assay: HCV pseudoparticle (HCVpp) entry assay in Huh7 hepatoma cells, luciferase readout; assay type: cell-based, hepatitis C virus; conditions: for luciferase units, HCV entry / viral entry as a percentage of the uninhibited control: duplicates; for % of control at ~30 uM: percentage of hepatitis C virus cellular entry at 30 μM peptide vs uninhibited control; for viral entry as a percentage of the uninhibited control: HCV entry
In short: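 Pseudoparticles carrying HCV E1/E2 on an HIV luciferase backbone were produced in 293T cells; peptide was pre-incubated 1 h at 37 °C with Huh7 cells, then virus added and luciferase read after 72 h. Dose-response used 10-point 3-fold titration from 100 ug/ml; envelope-less particles controlled non-specific entry.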

[2] = test system: amphotropic murine leukemia virus; assay: AMLV pseudotyped virus entry counter-screen, same infection protocol; assay type: cell-based; conditions: duplicates
Experimental: Infection of hepatoma cell lines with HCV pseudotype particles and screen for inhibitory peptides. The hepatoma cells, Huh7, was seeded at 8000 cells in 90 ul medium in 96-well plate. In the case of the inhibitor screen, the inhibitor was incubated with cells for one hour at 37° C. and then 50 ul viral supernatant was added to the cells 24 hours after seeding. The viral stock was pre-tittered and diluted to yield approximately 10,000 to 20,000 RLU. The cells were incubated at 37° C. with 5% CO2 for additional 72 hours and were harvested for luciferase assay. Peptide stocks were prepared in 100% DMSO at 10 mg/ml and were first screened at 100 ug/ml and then a dose responsive curve was generated with 10 points 3-fold titration starting from 100 ug/ml.
The specificity of the peptides were counter-screened with AMLV and HIV pseudotyped viruses using the same infection protocol.

[3] = 0.1 nM of peptide (printed for three rows), two values per peptide and row
[4] = 0.3 nM of peptide, two values per peptide
[5] = 1 nM of peptide, two values per peptide
[6] = 3 nM of peptide, two values per peptide
[7] = 10 nM of peptide, two values per peptide
[8] = 0.01371742 uM of peptide (three lines)
[9] = 30 nM of peptide, two values per peptide
[10] = 100 nM of peptide, two values per peptide
[11] = 300 nM of peptide, two values per peptide
[12] = 10000 nM of peptide, two values per peptide

Substance	luciferase units, HCV entry ([1]; 0.04115226 uM of peptide)	luciferase units, HCV entry ([1]; 0.1234568 uM of peptide)	luciferase units, HCV entry ([1]; 0.3703704 uM of peptide)	luciferase units, HCV entry ([1]; 1.111111 uM of peptide)	luciferase units, HCV entry ([1]; 3.333333 uM of peptide)	luciferase units, HCV entry ([1]; 10 uM of peptide)	luciferase units, HCV entry ([1]; 30 uM of peptide)	% of control at ~30 uM [1] [%]	luciferase units, AMLV entry [2, 8]	luciferase units, AMLV entry ([2]; 0.04115226 uM of peptide)	luciferase units, AMLV entry ([2]; 0.1234568 uM of peptide)	luciferase units, AMLV entry ([2]; 0.3703704 uM of peptide)	luciferase units, AMLV entry ([2]; 1.111111 uM of peptide)	luciferase units, AMLV entry ([2]; 3.333333 uM of peptide)	luciferase units, AMLV entry ([2]; 10 uM of peptide)	luciferase units, AMLV entry ([2]; 30 uM of peptide)	other results
A-I-K-W-E-Y-V-L-L-F-L-L-L [SEQ ID NO: 98]	6486 luciferase units and 6677 luciferase units	4583 luciferase units and 6873 luciferase units	2830 luciferase units and 5272 luciferase units	3285 luciferase units and 2555 luciferase units	2647 luciferase units and 2056 luciferase units	2186 luciferase units and 2352 luciferase units	1938 luciferase units and 2251 luciferase units	10	44492 luciferase units and 44531 luciferase units and 47406 luciferase units and 49869 luciferase units and 51067 luciferase units and 61382 luciferase units	41463 luciferase units and 41610 luciferase units	45455 luciferase units and 45030 luciferase units	42748 luciferase units and 48710 luciferase units	45508 luciferase units and 44147 luciferase units	59984 luciferase units and 48300 luciferase units	111324 luciferase units and 59835 luciferase units	81103 luciferase units and 70832 luciferase units	% control (HCVpp entry), proline scanning [1, 3]: 85 % control and 77 % control and 86 % control and 109 % control and 95 % control; % control (HCVpp entry), proline scanning [1, 4]: 90 % control and 68 % control; % control (HCVpp entry), proline scanning [1, 5]: 93 % control and 94 % control; % control (HCVpp entry), proline scanning [1, 6]: 86 % control and 52 % control; % control (HCVpp entry), proline scanning [1, 7]: 47 % control and 50 % control; luciferase units, HCV entry [1, 8]: 9747 luciferase units and 12623 luciferase units and 16027 luciferase units and 17299 luciferase units and 19079 luciferase units and 17575 luciferase units; % control (HCVpp entry), proline scanning [1, 9]: 41 % control and 35 % control; % control (HCVpp entry), proline scanning [1, 10]: 31 % control and 41 % control; % control (HCVpp entry), proline scanning [1, 11]: 21 % control and 29 % control; % control (HCVpp entry), proline scanning [1, 12]: 27 % control and 24 % control
A-I-K-W-E-Y-V-L-L-L-F-L-L [SEQ ID NO: 81]	3138 luciferase units and 5487 luciferase units	1665 luciferase units and 1759 luciferase units	2133 luciferase units and 2617 luciferase units	2065 luciferase units and 2449 luciferase units		2584 luciferase units and 3853 luciferase units	990 luciferase units and 667 luciferase units	17	46029 luciferase units and 39655 luciferase units and 41740 luciferase units and 42548 luciferase units and 45150 luciferase units and 45203 luciferase units	40104 luciferase units and 51496 luciferase units	51789 luciferase units and 49401 luciferase units	48861 luciferase units and 55221 luciferase units	54439 luciferase units and 53032 luciferase units	62658 luciferase units and 51388 luciferase units		86600 luciferase units and 64937 luciferase units	% control (HCVpp entry), glycine scanning ([1]; 0.00003 uM of peptide, two values per peptide and row): 86 % control and 77 % control and 104 % control and 134 % control; % control (HCVpp entry), glycine scanning ([1]; 0.0001 uM of peptide, two values per peptide): 103 % control and 79 % control; % control (HCVpp entry), glycine scanning ([1]; 0.0003 uM of peptide, two values per peptide): 90 % control and 105 % control; % control (HCVpp entry), glycine scanning ([1]; 0.001 uM of peptide, two values per peptide): 94 % control and 114 % control; % control (HCVpp entry), glycine scanning ([1]; 0.003 uM of peptide, two values per peptide): 82 % control and 66 % control; % control (HCVpp entry), glycine scanning ([1]; 0.01 uM of peptide, two values per peptide): 70 % control and 71 % control; % control (HCVpp entry), glycine scanning ([1]; 0.03 uM of peptide, two values per peptide): 51 % control and 38 % control; % control (HCVpp entry), glycine scanning ([1]; 0.3 uM of peptide, two values per peptide): 39 % control and 31 % control; % control (HCVpp entry), glycine scanning ([1]; 10 uM of peptide, two values per peptide): 22 % control and 34 % control; % control (HCVpp entry), glycine scanning ([1]; 30 uM of peptide, two values per peptide): 30 % control and 26 % control; viral entry as a percentage of the uninhibited control ([1]; 0.1 nM of peptide (three lines), 0.0001 µM): 79% and 103% and 77% and 86% and 134% and 104%; viral entry as a percentage of the uninhibited control ([1]; 0.3 nM of peptide, 0.0003 µM): 105% and 90%; viral entry as a percentage of the uninhibited control ([1]; 1 nM of peptide, 0.001 µM): 114% and 94%; viral entry as a percentage of the uninhibited control ([1]; 3 nM of peptide, 0.003 µM): 66% and 82%; viral entry as a percentage of the uninhibited control ([1]; 10 nM of peptide, 0.01 µM): 71% and 70%; viral entry as a percentage of the uninhibited control ([1]; 30 nM of peptide, 0.03 µM): 38% and 51%; viral entry as a percentage of the uninhibited control ([1]; 300 nM of peptide, 0.3 µM): 31% and 39%; viral entry as a percentage of the uninhibited control ([1]; 10000 nM of peptide, 10 µM): 34% and 22%; viral entry as a percentage of the uninhibited control ([1]; 30000 nM of peptide, 30 µM): 26% and 30%
A-I-K-W-E-Y-V-L-L-L-F-L-L [SEQ ID NO: 85]	7203 luciferase units and 6444 luciferase units		3658 luciferase units and 3430 luciferase units	4380 luciferase units and 2918 luciferase units	2239 luciferase units and 2490 luciferase units	3393 luciferase units and 2865 luciferase units		20	55532 luciferase units and 43767 luciferase units and 32138 luciferase units and 44812 luciferase units and 41172 luciferase units and 40068 luciferase units	32390 luciferase units and 42604 luciferase units	41483 luciferase units and 44739 luciferase units	44659 luciferase units and 43073 luciferase units	42996 luciferase units and 48628 luciferase units	92146 luciferase units and 118949 luciferase units	129890 luciferase units and 172763 luciferase units	72040 luciferase units and 83257 luciferase units	% control (HCVpp entry), alanine scanning [1, 3]: 79 % control and 81 % control and 101 % control and 74 % control and 113 % control and 112 % control; % control (HCVpp entry), alanine scanning [1, 4]: 79 % control and 96 % control; % control (HCVpp entry), alanine scanning [1, 5]: 95 % control and 83 % control; % control (HCVpp entry), alanine scanning [1, 6]: 71 % control and 88 % control; % control (HCVpp entry), alanine scanning [1, 7]: 90 % control and 107 % control; % control (HCVpp entry), alanine scanning [1, 9]: 62 % control and 57 % control; % control (HCVpp entry), alanine scanning [1, 10]: 45 % control and 50 % control; % control (HCVpp entry), alanine scanning [1, 11]: 18 % control and 22 % control; % control (HCVpp entry), alanine scanning [1, 12]: 13 % control and 18 % control; % control (HCVpp entry), alanine scanning ([1]; 30000 nM of peptide, two values per peptide): 70 % control and 103 % control
